# Laboratory results from ChEMBL document CHEMBL5303573, “Mapping human microbiome drug metabolism by gut bacteria and their genes” (Nature, 2019).
# Key:
# [1] = The drug is tested on Bacteroides caccae strain: ATCC43185 for biotransformation. The drug concentrations were measured before and after a 12-h incubation by liquid-chromatography-coupled mass spectrometry (LC–MS); settings: 2 µM
# [2] = The drug is tested on Bacteroides fragilis strain: HMW610 for biotransformation. The drug concentrations were measured before and after a 12-h incubation by liquid-chromatography-coupled mass spectrometry (LC–MS); settings: 2 µM
# [3] = The drug is tested on Bacteroides fragilis strain: HMW615 for biotransformation. The drug concentrations were measured before and after a 12-h incubation by liquid-chromatography-coupled mass spectrometry (LC–MS); settings: 2 µM
# [4] = The drug is tested on Bacteroides ovatus strain: ATCC8483 for biotransformation. The drug concentrations were measured before and after a 12-h incubation by liquid-chromatography-coupled mass spectrometry (LC–MS); settings: 2 µM
# [5] = The drug is tested on Bacteroides uniformis strain: ATCC8492 for biotransformation. The drug concentrations were measured before and after a 12-h incubation by liquid-chromatography-coupled mass spectrometry (LC–MS); settings: 2 µM
# [6] = The drug is tested on Bacteroides xylanisolvens strain: DSM18836 for biotransformation. The drug concentrations were measured before and after a 12-h incubation by liquid-chromatography-coupled mass spectrometry (LC–MS); settings: 2 µM
# [7] = The drug is tested on Odoribacter splanchnicus strain: fecal isolate for biotransformation. The drug concentrations were measured before and after a 12-h incubation by liquid-chromatography-coupled mass spectrometry (LC–MS); settings: 2 µM
# [8] = The drug is tested on Parabacteroides merdae strain: ATCC43184 for biotransformation. The drug concentrations were measured before and after a 12-h incubation by liquid-chromatography-coupled mass spectrometry (LC–MS); settings: 2 µM
# [9] = The drug is tested on Blautia hansenii strain: DSM20583 for biotransformation. The drug concentrations were measured before and after a 12-h incubation by liquid-chromatography-coupled mass spectrometry (LC–MS); settings: 2 µM
# [10] = The drug is tested on Blautia luti strain: DSM14534 for biotransformation. The drug concentrations were measured before and after a 12-h incubation by liquid-chromatography-coupled mass spectrometry (LC–MS); format: ADME; design: dose 2 uM, timepoint 0 vs 12 hours; settings: 2 µM
# [11] = The drug is tested on Dorea formicigenerans strain: ATCC27755 for biotransformation. The drug concentrations were measured before and after a 12-h incubation by liquid-chromatography-coupled mass spectrometry (LC–MS); settings: 2 µM
# [12] = The drug is tested on Enterococcus faecalis strain: V583 for biotransformation. The drug concentrations were measured before and after a 12-h incubation by liquid-chromatography-coupled mass spectrometry (LC–MS); settings: 2 µM
# [13] = The drug is tested on Ruminococcus torques strain: ATCC27756 for biotransformation. The drug concentrations were measured before and after a 12-h incubation by liquid-chromatography-coupled mass spectrometry (LC–MS); format: ADME; design: dose 2 uM, timepoint 0 vs 12 hours; settings: 2 µM
# [14] = The drug is tested on Edwardsiella tarda strain: ATCC23685 for biotransformation. The drug concentrations were measured before and after a 12-h incubation by liquid-chromatography-coupled mass spectrometry (LC–MS); settings: 2 µM
# [15] = The drug is tested on Providencia rettgeri strain: DSM1131 for biotransformation. The drug concentrations were measured before and after a 12-h incubation by liquid-chromatography-coupled mass spectrometry (LC–MS); format: ADME; design: dose 2 uM, timepoint 0 vs 12 hours; settings: 2 µM
# [16] = bifidobacterium adolescentis, 12 h, 2 µM
# Description: The drug is tested on Bifidobacterium adolescentis strain: ATCC 15703 for biotransformation. The drug concentrations were measured before and after a 12-h incubation by liquid-chromatography-coupled mass spectrometry (LC–MS)
# [17] = bacteroides thetaiotaomicron, 12 h, 2 µM
# Description: The drug is tested on Bacteroides thetaiotaomicron strain: VPI-5482 for biotransformation. The drug concentrations were measured before and after a 12-h incubation by liquid-chromatography-coupled mass spectrometry (LC–MS)
# [18] = enterocloster bolteae, 12 h, 2 µM
# Description: The drug is tested on Clostridium bolteae strain: ATCCBAA-613 for biotransformation. The drug concentrations were measured before and after a 12-h incubation by liquid-chromatography-coupled mass spectrometry (LC–MS)
# [19] = limosilactobacillus reuteri cf48-3a, 12 h, 2 µM
# Description: The drug is tested on Lactobacillus reuteri CF48-3A strain: BEI HM-102 for biotransformation. The drug concentrations were measured before and after a 12-h incubation by liquid-chromatography-coupled mass spectrometry (LC–MS)
# [20] = akkermansia muciniphila, 12 h, 2 µM
# Description: The drug is tested on Akkermansia muciniphila strain: ATCC BAA-835 for biotransformation. The drug concentrations were measured before and after a 12-h incubation by liquid-chromatography-coupled mass spectrometry (LC–MS)
SMILES,Bacterial Biotransformation [1],Bacterial Biotransformation [2],Bacterial Biotransformation [3],Bacterial Biotransformation [4],Bacterial Biotransformation [5],Bacterial Biotransformation [6],Bacterial Biotransformation [7],Bacterial Biotransformation [8],Bacterial Biotransformation [9],Bacterial Biotransformation [10],Bacterial Biotransformation [11],Bacterial Biotransformation [12],Bacterial Biotransformation [13],Bacterial Biotransformation [14],Bacterial Biotransformation [15],Bacterial Biotransformation [16],Bacterial Biotransformation [17],Bacterial Biotransformation [18],Bacterial Biotransformation [19],Bacterial Biotransformation [20]
Fc1ccc([C@@H]2CCNC[C@H]2COc2ccc3c(c2)OCO3)cc1 [PAROXETINE],Compound NOT metabolized,Compound NOT metabolized,Compound NOT metabolized,Compound NOT metabolized,Compound NOT metabolized,Compound NOT metabolized,Compound NOT metabolized,Compound NOT metabolized,Compound NOT metabolized,Compound NOT metabolized,Compound NOT metabolized,Compound NOT metabolized,Compound NOT metabolized,Compound NOT metabolized,Compound NOT metabolized,Compound NOT metabolized,Compound NOT metabolized,Compound metabolized,Compound NOT metabolized,Compound NOT metabolized
C#C[C@]1(OC(C)=O)CC[C@H]2[C@@H]3CCC4=CC(=O)CC[C@@H]4[C@H]3CC[C@@]21C [NORETHINDRONE ACETATE],Compound metabolized,Compound metabolized,Compound metabolized,Compound metabolized,Compound metabolized,Compound metabolized,Compound metabolized,Compound metabolized,Compound metabolized,Compound metabolized,Compound NOT metabolized,Compound NOT metabolized,Compound metabolized,Compound NOT metabolized,Compound NOT metabolized,Compound NOT metabolized,Compound metabolized,Compound metabolized,Compound NOT metabolized,Compound metabolized
CN1CCN(C2=Nc3ccccc3Oc3ccc(Cl)cc32)CC1.O=C(O)CCC(=O)O [LOXAPINE SUCCINATE],Compound NOT metabolized,Compound NOT metabolized,Compound NOT metabolized,Compound NOT metabolized,Compound NOT metabolized,Compound NOT metabolized,Compound NOT metabolized,Compound NOT metabolized,Compound NOT metabolized,Compound NOT metabolized,Compound NOT metabolized,Compound NOT metabolized,Compound NOT metabolized,,Compound NOT metabolized,Compound NOT metabolized,Compound NOT metabolized,Compound NOT metabolized,Compound NOT metabolized,Compound NOT metabolized
N#Cc1ccc(C(c2ccc(C#N)cc2)n2cncn2)cc1 [LETROZOLE],Compound NOT metabolized,Compound NOT metabolized,Compound NOT metabolized,Compound NOT metabolized,Compound NOT metabolized,Compound NOT metabolized,Compound NOT metabolized,Compound NOT metabolized,Compound NOT metabolized,Compound NOT metabolized,Compound NOT metabolized,Compound NOT metabolized,Compound NOT metabolized,Compound NOT metabolized,Compound NOT metabolized,Compound NOT metabolized,Compound NOT metabolized,Compound NOT metabolized,Compound NOT metabolized,Compound NOT metabolized
CC(=O)OCC(=O)[C@@]1(OC(C)=O)[C@@H](C)C[C@H]2[C@@H]3C[C@H](F)C4=CC(=O)C=C[C@]4(C)[C@@]3(F)[C@@H](O)C[C@@]21C [DIFLORASONE DIACETATE],Compound metabolized,Compound metabolized,Compound metabolized,Compound metabolized,Compound metabolized,Compound metabolized,Compound metabolized,Compound metabolized,Compound metabolized,Compound metabolized,Compound NOT metabolized,Compound NOT metabolized,,Compound NOT metabolized,Compound metabolized,Compound metabolized,Compound metabolized,Compound metabolized,Compound NOT metabolized,Compound metabolized

# Results, then the molecule that gave them:
Bacterial Biotransformation [1],Bacterial Biotransformation [2],Bacterial Biotransformation [3],Bacterial Biotransformation [4],Bacterial Biotransformation [5],Bacterial Biotransformation [6],Bacterial Biotransformation [7],Bacterial Biotransformation [8],Bacterial Biotransformation [9],Bacterial Biotransformation [10],Bacterial Biotransformation [11],Bacterial Biotransformation [12],Bacterial Biotransformation [13],Bacterial Biotransformation [14],Bacterial Biotransformation [15],Bacterial Biotransformation [16],Bacterial Biotransformation [17],Bacterial Biotransformation [18],Bacterial Biotransformation [19],Bacterial Biotransformation [20],SMILES
Compound NOT metabolized,Compound NOT metabolized,Compound NOT metabolized,Compound NOT metabolized,Compound NOT metabolized,Compound NOT metabolized,Compound NOT metabolized,Compound NOT metabolized,Compound NOT metabolized,Compound NOT metabolized,Compound NOT metabolized,Compound NOT metabolized,Compound NOT metabolized,Compound NOT metabolized,Compound NOT metabolized,Compound NOT metabolized,Compound NOT metabolized,Compound NOT metabolized,Compound NOT metabolized,Compound NOT metabolized,COc1ccccc1OCC(O)COC(N)=O (configuration not stated) [METHOCARBAMOL]
Compound NOT metabolized,Compound NOT metabolized,Compound NOT metabolized,Compound NOT metabolized,Compound NOT metabolized,Compound NOT metabolized,Compound NOT metabolized,Compound NOT metabolized,Compound NOT metabolized,Compound NOT metabolized,Compound NOT metabolized,Compound NOT metabolized,Compound NOT metabolized,Compound NOT metabolized,Compound NOT metabolized,Compound NOT metabolized,Compound NOT metabolized,Compound NOT metabolized,Compound NOT metabolized,Compound NOT metabolized,CC(CCc1ccccc1)NCC(O)c1ccc(O)c(C(N)=O)c1 (configuration not stated) [LABETALOL]
Compound NOT metabolized,Compound metabolized,Compound metabolized,Compound NOT metabolized,Compound metabolized,Compound NOT metabolized,Compound metabolized,Compound NOT metabolized,Compound NOT metabolized,,Compound NOT metabolized,Compound NOT metabolized,Compound NOT metabolized,Compound NOT metabolized,Compound NOT metabolized,Compound NOT metabolized,Compound NOT metabolized,Compound NOT metabolized,Compound NOT metabolized,Compound NOT metabolized,CC(C)[C@H]1CC[C@H](C(=O)N[C@H](Cc2ccccc2)C(=O)O)CC1 [NATEGLINIDE]
